Data taken from paper PMC11031590, “Narazaciclib, a novel multi-kinase inhibitor with potent activity against CSF1R, FLT3 and CDK6, shows strong anti-AML activity in defined preclinical models” (Scientific Reports, 2024).
Where two headings read alike, the source gives them in different places.

Assays:
Ba/F3-KRAS-G12C = Ba/F3-KRAS-G12C proliferation assay (CTG); assay type: cell-based; conditions: Mus musculus
Experimental: (§1) The recombinant Ba/F3 cell lines overexpressing human CSF1R, or human RBM6-CSF1R, or human ETV6-CSF1R were generated using a retrovirus vector (Kyinno Co., Ltd. Beijing). The recombinant Ba/F3 lines overexpressing human Kras G12C orEGFR-L718Q mutants, and different mutant variants of FLT3 were also similarly created as well. A standard proliferation assay via CTG readout was performed according to the vendor’s instructions (KYinno Biotechnology Co., Ltd. Beijing).

Ba/F3-FLT3-ITD (F691L) = Ba/F3-FLT3-ITD (F691L) proliferation assay; assay type: cell-based, mouse
Experimental: as §1

AML cell lines = experiment: In vitro proliferation assay, panel of 33 AML cell lines (summary statements); assay type: cell-based; conditions: a subset of AML lines; read-out: IC50 growth inhibition
Experimental: Narazaciclib was serially diluted with culture medium to 9 final assay concentrations from 0.01 to 100 μM. The assay was performed with both a negative control (vehicle) and a positive control (Cisplatin) in triplicate. The AML cell lines at log-growth phase were cultured in 96-well plates (black transparent flat bottom 96-well plate, Corning, Cat# 3603, FBS, ExCell Bio., Cat# FND500) in the presence of narazaciclib or Cisplatin at various concentrations for 72 h or 120 h (only for AML-193 cell line), followed by CTG readout according to the manufacturer’s instruction (CellTiter-Glo Luminescent Cell Viability Assay, Promega, Cat# G7573). Viability%=Lumdrug-Lummedium control/Lumcell control-Lummedium control×100%. Lumcell control-Lummedium controlas100%,LumMediumcontrolas0%. […]
Dose–response curves were fitted by a 4-parameter log-logistic model: Inhibition%=Bottom+Top-Bottom/1+10^logEC50-x∗HillSlope where Top and Bottom are the two asymptotes of the sigmoidal curve, EC50 is the relative IC50, concentration x is in log-10 scale and HillSlope is the slope at the EC50 point on the fitted curve. The fitted area under the curve (AUC) was calculated by: Inhibition%=Bottom+Top-Bottom/1+10^logEC50-x∗HillSlope where a represents the log10-transformed minimal concentration and b represents the log10-transformed maximal concentration. […]

AM7577 AML-PDX = experiment: AM7577 systemic AML-PDX model; assay type: in vivo, NOD/scid mice
Experimental: For systemic AML-PDX models, the model establishment and narazaciclib pharmacology experiment were performed essentially as described previously. Briefly, 2 × 10^6 AM7407 cells, or 2 × 10^6 AM7577 cells, or 2 × 10^6 AM5512 cells, or 1.65 × 10^6 AM8096 cells were inoculated intravenously into 4- to 5-week-old female NOD/scid mice for AML development. Engraftment was confirmed by the presence of circulating human CD45+ cells (anti-human CD45 antibody, Cat. 304038, Biolegend) in peripheral blood. Mice with successful engraftment of AML-PDX were randomized into different treatment groups (N = 6) and received their designated treatments. Narazaciclib was administrated orally or intraperitoneally at 10 mg/kg, or 30 mg/kg, or 100 mg/kg every day throughout the study, while Cytarabine was administrated intraperitoneally at 3 mg/kg every day. Following the initiation of designated treatments, leukemic burden was monitored by flow cytometry with anti-human CD45 antibody on the peripheral blood every week as well as on the peripheral blood, bone marrow cells and splenocytes of mice at sacrifice. Mice were sacrifice once the followings are observed: body weight loss over 20%, reduced motility and activity, labored breathing, ruffled coat, hunched back and severe dehydration.

[1] = Single-dose oral pharmacokinetics in non-tumor bearing mice; assay type: in vivo; conditions: female, NOD/scid; for CL/F: read-out: CL_F (converted)
Experimental: In order to understand the effective anti-AML exposure of narazaciclib in mice, we conducted a preliminary pharmacokinetic (PK) analysis of a single-dose oral administration of narazaciclib, at the same dose levels as in anti-AML pharmacology study above, in non-tumor bearing mice. Following a single oral administration of narazaciclib at either 30 mg/kg or 100 mg/kg in mice, plasma samples were collected at various timepoints. The plasma concentrations of narazaciclib were analyzed by LC–MS. […] In addition, narazaciclib undergoes relatively fast elimination from plasma with a T1/2 of 2.77 h for narazaciclib at 100 mg/kg or 1.92 h at 30 mg/kg.
Noncompartmental analyses (NCA) were performed using WinNonlinTM Phoenix, version XXX software (Pharsight, Cary, NC) to estimate the PK parameters including T1/2, elimination half-life; Tmax, Time to peak drug concentration; Cmax, maximum concentration; AUC0-∞, area under the plasma concentration–time curve from zero to infinity; AUC0-t, area under the plasma concentration–time curve from zero to the time of the last quantifiable time-point; CL_F, total body clearance; Vz-F, total volume of distribution. Following a single oral administration of narazaciclib at either 100 mg/kg or 30 mg/kg in female NOD/scid mice (N = 3), plasma samples were collected from 3 mice at each timepoint (pre-dose, 1h, 2h, 4h, 8h, 12h and24hpost administration) and analyzed by LC–MS.

[2] = 30 mg/kg single oral, mouse plasma
[3] = 100 mg/kg single oral, mouse plasma

- IC50 (Ba/F3-KRAS-G12C): 490 nM
- % of Ba/F3-FLT3 (IC50) (Ba/F3-FLT3-ITD (F691L)): 53.85%
- IC50 (Ba/F3-FLT3-ITD (F691L); Mus musculus): 162 nM
- AUC(0-inf) ([1]; mouse, plasma, oral, corresponding to 100 mg/kg dose level, read-out: efficacious exposure for anti-AML in mice in terms of AUC0~∞): < 8190 ng·h/mL
- Cmax ([1]; mouse, plasma, oral, corresponding to 100 mg/kg dose level, read-out: efficacious exposure for anti-AML in mice in terms of Cmax): < 1460 ng/mL
- AUC(0-t) [1, 2]: 1040 ng·h/mL
- Tmax [1, 2]: 1 h
- half-life [1, 2]: 1.92 h
- AUC(0-inf) ([1]; 30 mg/kg single oral, mouse plasma, read-out: AUC0-∞): 1200 ng·h/mL
- CL/F [1, 2]: 415 mL/min/kg
- Cmax ([1]; 30 mg/kg single oral, mouse plasma, read-out: Cmax): 469 ng/mL
- AUC(0-t) [1, 3]: 8190 ng·h/mL
- Tmax [1, 3]: 2 h
- half-life [1, 3]: 2.77 h
- AUC(0-inf) ([1]; 100 mg/kg single oral, mouse plasma, read-out: AUC0-∞): 8210 ng·h/mL
- CL/F [1, 3]: 203 mL/min/kg
- Cmax ([1]; 100 mg/kg single oral, mouse plasma, read-out: Cmax): 1460 ng/mL
Compound: CN1CCN(c2ccc(Nc3ncc4cc(C#N)c(=O)n(C5CCCC5)c4n3)cc2)CC1 [Narazaciclib, narazaciclib]
- IC50 (AML cell lines): < 1500 nM
- leukemic load in peripheral blood (AM7577 AML-PDX; 100 mg/kg orally every day): completely diminished the leukemic load in peripheral blood
- leukemic load in peripheral blood, spleen and bone marrow (AM7577 AML-PDX; AM7577): reduce the leukemic load in peripheral blood and spleen, but also the leukemic load in bone marrow
- leukemic burdens in spleen and bone marrow (AM7577 AML-PDX; AM7577, 100 mg/kg): significantly reduced the leukemic burdens in both spleen and bone marrow
- leukemic burdens, dose dependence (AM7577 AML-PDX; AM7577, different dose levels): reduced the leukemic burdens in a dose-dependent manner
